Some results are limits rather than exact numbers.

The test deals with Neuronal acetylcholine receptor. Kind of test: Evaluated for its binding affinity towards Nicotinic acetylcholine receptor in rat brain homogenate. The test is classed as tissue-based.
As to `CN1[C@@H](CCc2ccccc2)CCC[C@H]1CCc1ccccc1` [LOBELANE], the Ki was greater than 10 µM.
For `CN(C)CCC(O)c1ccccc1` (centres undefined) the value was greater than 10 µM; for `CN1[C@@H](CC(=O)c2ccccc2)CCC[C@H]1C[C@H](Cl)c1ccccc1`, 0.005 µM.
As to `CN1[C@@H](C[C@@H](O)c2ccccc2)CCC[C@H]1C[C@H](O)c1ccccc1`, the inhibitory constant (Ki) was 0.3 µM. This Ki is about 60-fold higher than that of the compound before.
As for `CN(CCCc1ccccc1)CCCc1ccccc1`, the figure is greater than 10 µM.
As for `CN1CCCCC1CCc1ccccc1` (centres undefined), the figure is 2.49 µM; as for `CN1[C@H](CCc2ccccc2)CCC[C@@H]1C[C@@H](O)c1ccccc1` [8R-hydroxylobelane], 0.34 µM; as for `CN(CCC(=O)c1ccccc1)CCC(=O)c1ccccc1`, greater than 10 µM.
For `CN1CCCC[C@H]1C[C@H](O)c1ccccc1` the value was greater than 10 µM; for `CN1[C@H](CCc2ccccc2)CCC[C@@H]1CC(=O)c1ccccc1`, 0.11 µM.
The compound `CN1[C@@H](CC(=O)c2ccccc2)CCC[C@H]1/C=C/c1ccccc1` displayed a Ki of 1.08 µM.
Consider `CN1[C@@H](CC(=O)c2ccccc2)CCC[C@H]1CC(=O)c1ccccc1`, for which the Ki was found to be 7.8 µM. This Ki lies about 7.2-fold higher than the previous one.
In turn, `CN1[C@@H](CCc2ccccc2)CCC[C@H]1C[C@H](O)c1ccccc1` gave a Ki of 0.235 µM.
For `C[N+]1(C)[C@@H](CC(=O)c2ccccc2)CCC[C@H]1C[C@H](O)c1ccccc1` the value was 2.03 µM.

The values are drawn from ChEMBL document CHEMBL1132385 (J Med Chem, 1999).
